Source: US7842710B2, “Carboxamides” (Bayer Cropscience AG, priority 2004, dated 2010)

Assay: logP determination by HPLC on a reverse phase column (C18), EEC Directive 79/831 Annex V.A8
Format: physicochemical
Conditions: HPLC C18, 43° C.; for logP (pH 2.3): Table 1; for chromatographic logP: reverse phase HPLC column (C18), pH 2.3
Method: The specified logP values are determined by HPLC on a reverse phase column (C18) in accordance with EEC Directive 79/831 Annex V.A8. Temperature: 43° C. Eluents for the measurement in the acid range (pH 2.3): 0.1% aqueous phosphoric acid, acetonitrile; linearer gradient of 10% acetonitrile to 90% acetonitrile. Calibration is performed with unbranched alkyl-2-ones (with 3 to 16 carbon atoms) with known logP values (determination of the logP values based on retention times by linear interpolation between two sequential alkyl ketones).

| Structure (SMILES) | logP (pH 2.3) | chromatographic logP |
| --- | --- | --- |
| CCCC(C)SC(C)c1ccccc1NC(=O)c1cn(C)nc1C(F)(F)F (mixture of isomers) [compound 42] | 4.02 | – |
| CCCC(C)SC(C)c1ccccc1NC(=O)c1c(C)nn(C)c1F (mixture of isomers) [compound 43] | 3.82 | – |
| CCCC(C)SC(C)c1ccccc1NC(=O)c1sc(C)nc1C(F)(F)F (mixture of isomers) [compound 44] | 4.52 | – |
| CCC(C)SC(C)c1ccccc1NC(=O)c1cn(C)nc1C(F)(F)F (mixture of isomers) [compound 45] | 4.14 | – |
| CCC(C)SC(C)c1ccccc1NC(=O)c1c(C)nn(C)c1F (mixture of isomers) [compound 46] | 3.38 | – |
| CCCC(C)SC(C)c1ccccc1NC(=O)c1ccccc1I (mixture of isomers) [compound 47] | 4.75 | – |
| CCC(C)SC(C)c1ccccc1NC(=O)c1sc(C)nc1C(F)(F)F (mixture of isomers) [compound 48] | 4.12 | – |
| CCC(C)SC(C)c1ccccc1NC(=O)c1ccccc1I (mixture of isomers) [compound 49] | 4.33 | – |
| CC(C)SC(C)c1ccccc1NC(=O)c1ccccc1Br (racemic) [compound 26] | 3.79 | – |
| CC(C)SC(C)c1ccccc1NC(=O)c1ccccc1I (racemic) [compound 27] | 3.91 | – |
| CC(C)SC(C)c1ccccc1NC(=O)c1cn(C)nc1C(F)F (racemic) [compound 28] | 3.01 | – |
| Cc1nc(C(F)F)c(C(=O)Nc2ccccc2C(C)SC(C)C)s1 (racemic) [compound 29] | 3.55 | – |
| CC(C)SC(C)c1ccccc1NC(=O)C1=C(C(F)(F)F)OCCS1 (racemic) [compound 30] | 3.76 | – |
| COC(C)c1ccccc1NC(=O)c1c(C)nn(C)c1F (racemic) [compound 31] | 2.17 | – |
| COC(C)c1ccccc1NC(=O)c1cn(C)nc1C(F)(F)F (racemic) [compound 32] | 2.46 | – |
| COC(C)c1cc(Cl)ccc1NC(=O)c1ccccc1C(F)(F)F (racemic) [compound 33] | 3.56 | – |
| COC(C)c1ccccc1NC(=O)c1ccccc1C(F)(F)F (racemic) [compound 34] | 2.99 | – |
| CC(C)NC(C)c1ccccc1NC(=O)c1cn(C)nc1C(F)(F)F (racemic) [compound 41] | 1.06 | – |
| CCCC(C)SC(C)c1ccccc1NC(=O)c1cn(C)cc1C(F)(F)F (racemic) [compound 109] | 4.29 | – |
| CCCC(C)SC(C)c1ccccc1NC(=O)C1=C(C(F)(F)F)OCCS1 (racemic) [compound 110] | 4.49 | – |
| CCCC(C)SC(C)c1ccccc1NC(=O)c1c(C(F)(F)F)nn(C)c1F (racemic) [compound 111] | 4.38 | – |
| CCCC(C)SC(C)c1ccccc1NC(=O)c1ccccc1C (racemic) [compound 112] | 4.76 | – |
| CCCC(C)SC(C)c1ccccc1NC(=O)c1c(C)nn(C)c1Cl (racemic) [compound 113] | 4.07 | – |
| CCC(C)SC(C)c1ccccc1NC(=O)c1c(C(F)(F)F)nn(C)c1F (racemic) [compound 121] | 3.99 | – |
| Cc1sccc1C(=O)Nc1ccccc1C(C)S(=O)(=O)C(C)C (centres unmarked) [Compound No. 4] | 2.38 | – |
| CC(C)S(=O)(=O)C(C)c1ccccc1NC(=O)c1ccccc1C(F)(F)F (centres unmarked) [Compound No. 6] | 2.53 | – |
| Cc1nn(C)c(F)c1C(=O)Nc1ccccc1C(C)NC(C)C (centres unmarked) [Compound No. 40, 5-fluoro-N-{2-[1-(isopropylamino)ethyl]phenyl}-1,3-dimethyl-1H-pyrazole-4-carboxamide] | – | 0.58 |
| CC(C)OCc1ccccc1NC(=O)c1cn(C)nc1C(F)(F)F [Compound No. 60, N-[2-(isopropoxymethyl)phenyl]-1-methyl-3-(trifluoromethyl)-1H-pyrazol-4-carboxamide] | – | 2.85 |
| CC(C)SC(C)c1ccccc1N (centres unmarked) [III-1, 2-[1-(isopropylthio)ethyl]aniline] | – | 2.45 |
